# pKi: −log10 of the molar value. “Also recorded” adds a separate entry of the source.
# Key:
# [1] = test system: MPP^+ -resistant CHO cells; assay: MTT cytotoxicity assay in MPP+-resistant transfected CHO cells; format: cell-based, Chinese hamster; conditions: 1 μM reserpine, MPP+-resistant CHO cells
# Description: (§1) Differential susceptibility to the respiratory complex I inhibitors MPP^+ and rotenone was shown by measuring toxicity by measuring general cell dehydrogenase activity with reduction of a tetrazolium dye (MTT) in a spectrophotometric plate assay as described by Hansen et al., J. Immunol. Methods 119:203-210 (1989). Briefly, a stock solution of MTT (3,(4,5-dimethylthiazol-2-yl)2,5-diphenyltetrazolium bromide) was dissolved at a concentration of 5 mg/ml in sterile phosphate buffered saline at room temperature. To each well was added 25 μl of the stock solution. After two hours of incubation at 37° C., 100 μl of extraction buffer (20% w/v of SDS in a solution of 50% each dimethylformamide and demineralized water with the pH adjusted to 4.7 with acetic acid and HCl). After an overnight incubation at 37° C., the optical densities at 570 nm were measured using a multiscanner, employing the extraction buffer as the blank. This assay was carried out in triplicate on 96-well plates (NUNC, Denmark). MPP^+ and rotenone at the concentrations indicated in FIG. 6a and 6b, respectively, was added to wild-type and MPP^+ -resistant CHO cells at approximately 50% confluence, and toxicity was assayed after 2-3 days by measuring general cell dehydrogenase activity with the reduction of the tetrazolium dye MTT (3,(4,5-dimethylthiazol-2-yl)2,5-diphenyl-tetrazolium bromide). After addition of the dye at a final concentration of 1 mg/ml, the cells were incubated for two hours at 37° C. and the formazan product was solubilized in 10% sodium dodecyl sulfate (SDS). The plates were maintained at 37° C. for an additional twenty hours and the optical density was determined in an ELISA plate reader at a test wavelength of 570 nm, a reference wavelength of 630 nm and a calibration setting of 1.99. All determinations were performed in triplicate and expressed as the mean, with the error bars representing standard deviation (FIG. 6a and 6b).
# To determine whether an alteration in the process of respiration was responsible for the resistance to MPP^+, the effects of other known respiratory inhibitors were examined. […] Thus, if the resistance were due to a change in the site of action, the transfected cells should also show resistance to rotenone. […] However, rotenone is considered to have its selected effect on respiration at relatively low doses, and an additional, less specific effect at higher doses.
# Therefore, the toxicity of MPP^+ to transfected cells in the presence of 1 μM reserpine was examined.
# [2] = test system: bacterial BMR transporter; conditions: cited from earlier work
# [3] = test system: wild-type CHO cells; assay: MTT cytotoxicity assay in wild-type CHO cells; format: cell-based, Chinese hamster; conditions: wild-type CHO, lower MPP+ concentrations
# Description: as §1
# [4] = target: T1, chromaffin granule amine transport protein (Rattus norvegicus, UniProt Q01818); assay: cell-based; format: cell-based
# T1 sequence (Q01818 1-521): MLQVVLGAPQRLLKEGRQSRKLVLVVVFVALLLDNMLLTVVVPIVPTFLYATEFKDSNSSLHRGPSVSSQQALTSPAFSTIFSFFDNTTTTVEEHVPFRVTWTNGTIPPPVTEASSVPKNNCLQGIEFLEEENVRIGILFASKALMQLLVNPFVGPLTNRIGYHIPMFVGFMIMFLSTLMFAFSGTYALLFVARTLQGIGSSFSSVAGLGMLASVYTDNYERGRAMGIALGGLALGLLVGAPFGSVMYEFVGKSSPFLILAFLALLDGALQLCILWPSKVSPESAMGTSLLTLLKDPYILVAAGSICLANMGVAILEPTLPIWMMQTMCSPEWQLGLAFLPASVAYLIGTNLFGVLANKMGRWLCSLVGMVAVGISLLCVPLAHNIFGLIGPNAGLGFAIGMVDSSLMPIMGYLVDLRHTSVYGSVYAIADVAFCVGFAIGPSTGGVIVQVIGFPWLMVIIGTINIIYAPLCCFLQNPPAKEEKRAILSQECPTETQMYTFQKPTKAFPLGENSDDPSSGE
# Description: Uptake and cellular compartmentalization of loaded dopamine were performed by growing cells on poly-lysine-coated glass coverslips. […] The cells were then washed three times in 0.1M sodium phosphate, pH 7.4, and incubated at 4° C. in 2% glyoxylic acid/0.5 mg% MgCl2, pH 4.9-5.0 for three minutes as described by de la Torre, J. Neurosci. Meth. 3:1-5 (1980). Briefly, excess solution is wiped off the bottom and edges of the slide using absorbent paper, taking care not to touch the section. The coverslips were then drained thoroughly, dried in air at 45° C. heated to 80° C. for five minutes, inverted over mineral oil on glass slides and examined under fluorescence using the appropriate filters as described by Knigge et al., Brain Res. 120:393-405 (1977). Briefly, the preparations were infiltrated with warm immersion oil and examined in a Leitz MPV2 microspectrofluorometer equipped with Schoffel excitation and emission grating monochromators, photomultipliers, and ratio computing circuitry. Cells were scanned with either monochromatic light (370 nm) or narrow band excitation (S405, BG3) light for the purpose of identifying fluorescence within cells. Ploem illumination was used in combination with a X 63 or X 100 oil immersion objective.
# Dopamine-loaded fluorescence was carried out as described in Example 1. […] Glyoxylic-acid-induced fluorescence was used to determine the intracellular distribution as described above in Example 1. The procedures were the same as described in Example 1 however a pure cDNA clone encoding the vesicle membrane transport protein, selected in the presence of MPP^+, obtained as described herein, was used rather than the primary transformant. […]
# The effects of various pharmacologic agents were tested to determine whether the properties of the protein encoded by the mpp^res cDNA corresponded with those expected for the chromaffin granule amine transport protein. […] The cells were pre-incubated in Krebs-Ringer buffer containing 1 μM pargyline and the dose of the drug indicated for 15 minutes. 25 nM [^3 H]-dopamine was then added in the same buffer and after incubation at 37° C. for one hour, the cells were washed in cold Krebs-Ringer buffer, lysed and counted in Ecolite (ICN) as described by Greene and Rein, Brain Res. 129:247-263 (1978). Values were determined from three separate wells and the mean was expressed as percent of control uptake±standard deviation. […] The dose required to inhibit maximal uptake by 50%, Ki, was estimated from the fluorescence data using a range of concentrations for each agent.
structure (smiles),measurement,setting,value
COC(=O)[C@H]1[C@H]2C[C@@H]3c4[nH]c5cc(OC)ccc5c4CCN3C[C@H]2C[C@@H](OC(=O)c2cc(OC)c(OC)c(OC)c2)[C@@H]1OC [reserpine],reversal of MPP+ resistance,[1],Dramatic reversion to wild-type CHO sensitivity
same,inhibition of bacterial BMR transporter,[2],inhibits
same,effect on MPP+ toxicity in wild-type cells,[3],very little reproducible effect
same,inhibition of vesicular dopamine uptake in the fluorescence assay,[4]; 50 nM,inhibit vesicular dopamine uptake completely
same,perinuclear and particulate cytoplasmic dopamine staining of MPP+-resistant CHO cells,[4]; 1 μM,inhibited
same,Dopamine Fluorescence (mpp^res CHO),"[4]; agent 1 μM, untreated control ++++, 12 hour dopamine loading",0
same,pKi,"[4]; dose required to inhibit maximal uptake by 50%, estimated from fluorescence data, read-out: Ki (est)",7.60
same,pattern of catecholamine accumulation in the MPP+-resistant transfectant,[4]; reserpine concentration not stated,reversion to the wild-type pattern of catecholamine accumulation; also recorded: reversed

# — patent publication US5688936A, “Vesicle membrane transport proteins” (priority 1993, dated 1997)
